A word on the LD50: it is the dose at which mortality reaches 50%.

The text below walks through data of patent US6306853A, “1,4-Dihydropyridine derivatives” (Nikken Chemicals Co., Ltd., priority 1998, dated 2001).

Data set [1] can be described thus: Acute toxicity test in mice, intraperitoneal. To be noted: mouse, in vivo, ip, 7 days observation. The method, then:
Animals used: ddY male mice (SLC Japan), 4-5 weeks old, three to five mice per group.
Test method: The compound of the present invention was suspended in 0.5% sodium carboxymethylcellulose (CMC-Na) containing 0.1% Tween 80. It was administered to the mice intraperitoneally in amounts of 250, 500 or 1000 mg/kg in groups of three to five mice. The survival of the animals was observed up until 7 days after administration and LD50 value was calculated according to a Probit method.

Data set [2] has as its system KB/VJ 300 cells. Put plainly: Degree of resistance to ADM (ratio of ADM LD50 concentrations) in multi-drug resistant KB/VJ 300 cells on combined administration of doxorubicin and test compound. The following applies: VJ-300 (resistant) cells; ADM + test compound 1 μg/ml; relative to ADM alone in KB = 1. The format is cell-based, human. Here is the method: In Vitro Test of Action Suppressing Proliferation of Cancer Cells combined administration of Doxorubicin
Human rhinopharynx cancer derived KB cells (i.e., sensitive cells) and their multi-drug resistant clone KB/VJ 300 cells (i.e., resistant cells) were used as the test cells. As the incubation solutions, use was made of 10% fetal calf serum (Flow Laboratories) and Eagle MEM medium (Nissui Seiyaku) containing 0.292 mg/ml of L-glutamine (Flow Laboratories). The tests of the action for overcoming resistance to anti-cancer drugs or action for increasing the effect of the anti-cancer drug with the combined administration of the anti-cancer drug doxorubicin (i.e., adriamycin, ADM) and the test compound were performed as follows:
The test cells were suspended in incubation solutions and adjusted to a cell density of about 200 cells/ml. The cell suspensions were injected in 2 ml amounts into petri dishes and were incubated in a CO2 gas incubator (5% CO2, 95% air) at 37° C. for 24 hours. Then, 5-10 μl of a predetermined concentration of the aqueous ADM solution and a predetermined concentration of a DMSO solution of the test compound were added, then the incubation was continued for a further 6 days. After the end of the incubation, the result was immobilized with methanol, Tripan blue stained and measured for the number of colonies per dish. […]

Data set [3] has as its system KB/VJ 300 cells. Kind of data set: Degree of resistance to VCR in multi-drug resistant VJ-300 cells on combined administration of vincristine and test compound. The format is cell-based, human. To be noted: relative to KB = 1. Here is the method: Human rhinopharynx cancer derived KB cells (i.e., sensitive cells) and their multi-drug resistant clone KB/VJ 300 cells (i.e., resistant cells) were used as the test cells. As the incubation solutions, use was made of 10% fetal calf serum (Flow Laboratories) and Eagle MEM medium (Nissui Seiyaku) containing 0.292 mg/ml of L-glutamine (Flow Laboratories). The tests of the action for overcoming resistance to anti-cancer drugs or […]
The test cells were suspended in incubation solutions and adjusted to a cell density of about 200 cells/ml. The cell suspensions were injected in 2 ml amounts into petri dishes and were incubated in a CO2 gas incubator (5% CO2, 95% air) at 37° C. for 24 hours. […] After the end of the incubation, the result was immobilized with methanol, Tripan blue stained and measured for the number of colonies per dish. The results were used to prepare a volume-reaction curve. From this, the ADM concentration of the 50% cell survival rate (LD50 ) was calculated and the effect for overcoming resistance to anti-cancer drugs and the effect for increasing the effect of anti-cancer drugs were judged. The results are shown in Table 12 to Table 14 using the concentration of LD50 of ADM in the ADM alone group when KB cells were used as the resistance degree 1 and calculating the resistances of the following LD50 concentrations as relative ratios. […]

In data set [4] the test system is thoracic aorta of the rat. Kind of data set: Action easing KCl contraction in rat arteries. To be noted: rat thoracic aorta ring, 50 mM KCl, compound 10^-6 M; read-out: Inhibitory rate of hyperpotassium contraction at 10^-6 M. Here is the method: Action Easing KCl Contraction in Rat Arteries
The specimen was stabilized for approximately 60 minutes, then a potassium chloride solution was added to the Magnus tube to give a final concentration of 50 mM. The positive control compound or the compound of the present invention was cumulatively added to become 1×10^-6 M when the contraction reaction occurring at that time reached equilibrium. The contraction force was recorded by an FD-pickup (Nihon Koden) via a polygraph (Nihon Koden).

Data set [5] concerns VCR resistant murine leukemia (P388/VCR) cells. Put plainly: In vivo overcoming of resistance in VCR resistant murine leukemia (P388/VCR) bearing mice, etoposide with compound 20 mg/kg. The arrangement: species or system CDF1 female mice. To be noted: VP-16 3 mg/kg + compound 20 mg/kg, i.v. once per day for 5 days; for Rate of prolongation of life T/C: vs control. Here is the method: In Vivo Test of Action Suppressing Proliferation of Cancer Cells by Combined Administration of Anti-cancer Drug Etoposide
Effect of Overcoming Resistance to an Anti-cancer Drug for VCR Resistant Murine Leukemia Cell Bearing Mice
1.2×10^5 VCR resistant murine leukemia (P388/VCR) cells were transplanted intravenously into groups of 5-6 CDF1 female mice, then the compound of the present invention (20 mg/kg) and Etoposide (VP-16) (3 mg/kg) were administered intravenously once per day for 5 days, after dissolving them in a physiological salt solution containing a small amount of hydrochloric acid. The observation was started from the next day. The number of survival days were found and the life prolonging rate (T/C) with respect to the controls was found. The effect in overcoming resistance to an anti-cancer drug (T/V) was found by the following formula.
Effect of overcoming resistance to the anti-cancer drug (T/V) %
=[(Rate of prolongation of life using VP-16 and the present compound (T/C))/(Rate of prolongation of life using VP-16 alone (T/C))]×100

For the next data set, the system named is multidrug resistance. The following applies: literature statement in words; cited from earlier work.

`CCOC(=O)C1=C(c2ccc(-n3ccnc3)cc2)NC(C)=C(C(=O)OCC#Cc2cccnc2)C1/C=C/c1ccccc1` (centres unmarked) [Compound 24, 2-[4-(1-Imidazolyl)phenyl]-6-methyl-4-[(E)-2-phenylethenyl]-1,4-dihydropyridin-3,5-dicarboxylate 3-ethylester 5-[3-(3-pyridyl)-2-propynyl]ester] returned an LD50 at 168 h in data set [1] of over 1000 mg/kg.
With “6-Methyl-2-[4-(2-methylimidazo[4,5-b]pyridin-1-yl)phenyl]-4-(2-phenylethyl)-1,4-dihydropyridin-3,5-dicarboxylate 3-ethylester 5-[3-(3-pyridyl)-2-propynyl]ester [Compound 51]”, in the data set on KB/VJ 300 cells [2], the “Degree of resistance for ADM, VJ-300” value turned out to be 1.43.
On to `CC[C@]1(O)C[C@H]2CN(CCc3c([nH]c4ccccc34)[C@@](C(=O)OC)(c3cc4c(cc3OC)N(C=O)[C@H]3[C@@](O)(C(=O)OC)[C@H](OC(C)=O)[C@]5(CC)C=CCN6CC[C@]43[C@@H]65)C2)C1` [VCR, vincristine], for which the “Degree of resistance for VCR, VJ-300 (VCR alone, control)” value in the data set with KB/VJ 300 cells [3] is reported as 903-970.
With `CCOC(=O)C1=C(c2ccc(-n3c(C)nc4cnccc43)cc2)NC(C)=C(C(=O)OCC#Cc2cccnc2)C1C` (centres unmarked) [Compound 1, 4,6-dimethyl-2-[4-(2-methylimidazo[4,5-c]pyridin-1-yl)phenyl]-1,4-dihydropyridin-3,5-dicarboxylic acid 3-ethylester 5-[3-(3-pyridyl)-2-propynyl]ester], in data set [4], the inhibition at 1 µM came to 0%. In data set [5], the “Average days of survival” value turned out to be 13.6 days and the “Rate of prolongation of life T/C” value worked out at 148%.
For `CCOC(=O)C1=C(c2ccc(-n3c(C)nc4cnccc43)cc2)NC(C)=C(C(=O)OCC#Cc2cccnc2)C1/C=C/c1ccco1` (centres unmarked) [Compound 16, 4-[(E)-2-(2-Furyl)ethenyl]-6-methyl-2-[4-(2-methylimidazo[4,5c]pyridin-1-yl)phenyl]1,4-dihdropyridin-3,5-dicarboxylate 3-ethylester 5-[3-(3-pyridyl)-2-propynyl]ester] the same measures were 0%, 15.0 days and 147%.
`COC(=O)C1=C(C)NC(C)=C(C(=O)OCCN(C)Cc2ccccc2)C1c1cccc([N+](=O)[O-])c1` (centres unmarked) [nicardipine, reference compound]: in data set [4], the inhibition at 1 µM came out at 100%. In addition, the “effect of combined administration with an anti-cancer drug on multidrug resistance” value in the data set with multidrug resistance is given as “effective”.
In data set [1], `CCOC(=O)C1=C(c2ccc(-n3c(C)nc4cnccc43)cc2)NC(C)=C(C(=O)OCC#Cc2cccnc2)C1CCc1ccccc1` (centres unmarked) [Compound 9, 6-Methyl-2-[4-(2-methylimidazo[4,5-c]pyridin-1-yl)phenyl]-4-(2-phenylethyl)-1,4-dihydropyridin-3,5-dicarboxylate 3-ethylester 5-[3-(3-pyridyl)-2-propynyl]ester] yielded an LD50 at 168 h of over 1000 mg/kg. Further, in data set [5], the “Average days of survival” value came out at 15.0 days and the “Rate of prolongation of life T/C” value was determined as 163%.
In the case of `CCCCCC1C(C(=O)OC(C)C#Cc2cccnc2)=C(C)NC(c2ccc(-n3c(C)nc4cnccc43)cc2)=C1C(=O)OCC` (centres unmarked) [Compound 22, 6-Methyl-2-[4-(2-methylimidazo[4,5-c]pyridin-1-yl)phenyl]-4-pentyl-1,4-dihydropyridin-3,5-dicarboxylate 3-ethylester 5-[1-methyl-3-(3-pyridyl)-2-propynyl]ester], in data set [4], the inhibition at 1 µM stood at 0%. The compound also returned an LD50 at 168 h in data set [1] of over 1000 mg/kg. In addition, in data set [5], the “Average days of survival” value turned out to be 14.6 days and the “Rate of prolongation of life T/C” value amounted to 159%.
In the case of “6-Methyl-2-[4-(2-methylimidazo[4,5-b]pyridin-1-yl)phenyl]-4-pentyl-1,4-dihydropyridin-3,5-dicarboxylate 3-ethylester 5-[3-(3-pyridyl)2-propynyl]ester [Compound 52]”, the “Degree of resistance for ADM, VJ-300” value in the data set on KB/VJ 300 cells [2] was found to be 1.60.
As to `CCOC(=O)C1=C(c2ccc(-n3c(C)nc4cnccc43)cc2)NC(C)=C(C(=O)OCC#Cc2cccnc2)C1Cc1ccccc1` (centres unmarked) [Compound 6, 4-Benzyl-6-methyl-2-[4-(2-methylimidazo[4,5-c]pyridin-1-yl)phenyl]-1,4-dihydropyridin-3,5-dicarboxylate 3-ethylester 5-[3-(3-pyridyl)-2-propynyl]ester], in data set [4], the inhibition at 1 µM turned out to be 7.5%. Moreover, in data set [5], the “Average days of survival” value is 16.0 days and the “Rate of prolongation of life T/C” value is 174%.
On to `CCOC(=O)C1=C(c2ccc(-n3c(C)nc4cnccc43)cc2)NC(C)=C(C(=O)OCC#Cc2cccnc2)C1CCc1ccsc1` (centres unmarked) [Compound 17, 6-Methyl-2-[4-(2-methylimidazo[4,5-c]pyridin-1-yl)phenyl]-4-[2-(3-thienyl)ethyl]-1,4-dihydropyridin-3,5-dicarboxylate 3-ethylester 5-[3-(3-pyridyl)2-propynyl]ester], for which, in data set [4], the inhibition at 1 µM came out at 0%. Also, in data set [5], the “Average days of survival” value amounted to 13.4 days and the “Rate of prolongation of life T/C” value amounted to 146%.
`COc1ccc(CCN(C)CCCC(C#N)(c2ccc(OC)c(OC)c2)C(C)C)cc1OC` (centres unmarked) [Verapamil, reference compound]: the inhibition at 1 µM in data set [4] came to 42.3%.
Take `CCOC(=O)C1=C(c2ccc(-n3c(C)nc4cnccc43)cc2)NC(C)=C(C(=O)OCC#Cc2cccnc2)C1/C=C/c1ccccc1OC` (centres unmarked) [Compound 14, 4-[(E)-2-(2-Methoxyphenyl)ethenyl]-6-methyl-2-[4-(2-methylimidazo[4,5-c]pyridin-1-yl)phenyl]-1,4-dihydropyridin-3,5-dicarboxylate 3-ethylester 5-[3-(3-pyridyl)-2-propynyl]ester]: the inhibition at 1 µM in data set [4] was 0%. In addition, in data set [5], the “Average days of survival” value turned out to be 15.7 days and the “Rate of prolongation of life T/C” value worked out at 154%.
